We go through seven substances from US9102752B2, “Peptide vaccine for prevention and immunotherapy of dementia of the Alzheimer's type” (United Biomedical, Inc., priority 2013, dated 2015).

For assay [1], the system named is anti-Aβ antibodies in sera from vaccinated baboons. Description: Epitope mapping, 10-mer peptide-based ELISA with sera from vaccinated baboons. The note with it: peptide as plate coating.
Experimental: Fine specificity analyses of anti-Aβ antibodies in immunized hosts or vaccines were determined by epitope mapping.
These nested peptides were used individually to coat microtiter wells as solid-phase immunoadsorbents for ELISA tests. The positive control ELISA plate was coated with Aβ1-28. They were tested for antibody binding with the sera from the four immunized baboons, from weeks 0, 10, 84 and 111. Baboon sera were serially diluted and assayed on plates coated with a 10-mer peptide at 5 ug/mL.
The test system of another assay is baboon anti-Aβ antibody. Description: Epitope mapping by competitive inhibition ELISA with hyperimmune baboon sera. Type of assay: binding, baboons. (In general: In an ELISA, binding on a coated surface is turned into a signal by an enzyme label.)
[2] abbreviates: peptide concentration 0.5 μg/mL.

In the case of 24 (GYEVHHQKLV) [Peptide 24], the “ELISA Titer titers (Log10)” value in assay [1] (0 weeks post immunization) is 0.13 Log10; in assay [1] (10 weeks post immunization), 0.27 Log10; in assay [1] (84 weeks post immunization), 0.19 Log10; in assay [1] (111 weeks post immunization), 0.12 Log10.

For 25 (YEVHHQKLVF) [Peptide 25], the “ELISA Titer titers (Log10)” value is on record as 0.16 Log10 in assay [1] (0 weeks post immunization), 0.43 Log10 in assay [1] (10 weeks post immunization), 0.15 Log10 in assay [1] (84 weeks post immunization) and 0.22 Log10 in assay [1] (111 weeks post immunization).

For the substance 28 (HHQKLVFFAE) [Peptide 28], the “ELISA Titer titers (Log10)” value in assay [1] (0 weeks post immunization) is reported as 0.19 Log10; in assay [1] (10 weeks post immunization), 0.22 Log10; in assay [1] (84 weeks post immunization), 0.13 Log10; in assay [1] (111 weeks post immunization), 0.12 Log10.

29 (HQKLVFFAED) [Peptide 29]: the “ELISA Titer titers (Log10)” value in assay [1] (0 weeks post immunization) amounted to 0.18 Log10; in assay [1] (10 weeks post immunization), 0.21 Log10; in assay [1] (84 weeks post immunization), 0.13 Log10; in assay [1] (111 weeks post immunization), 0.13 Log10.

For the substance “SEQ ID NO: 16: MDAEF RHDSG (MDAEFRHDSG; PEPTIDE (1)..(10) Abeta -1-9 or APP 770(M671-G680); listed as Homo sapiens) [Aβ-1-9]”, the “Percent (%) Inhibition ELISA after peptide pre-absorption of sera” value (from here on “Percent (%) Inhibition ELISA”) is recorded as 9% in the assay with baboon anti-Aβ antibody (setting [2]); 4% in the assay with baboon anti-Aβ antibody (peptide concentration 1 μg/mL); 8% in the assay with baboon anti-Aβ antibody (peptide concentration 2 μg/mL); 17% with baboon anti-Aβ antibody (peptide concentration 8 μg/mL); 39% with baboon anti-Aβ antibody (peptide concentration 32 μg/mL).

As for “SEQ ID NO: 17: AEFRH DSGYE (AEFRHDSGYE; PEPTIDE (1)..(10) Abeta 2-11 or APP 770(A673-E682); listed as Homo sapiens) [Aβ2-11]”, the “Percent (%) Inhibition ELISA” value with baboon anti-Aβ antibody (setting [2]) stood at 0%; in the assay with baboon anti-Aβ antibody (peptide concentration 1 μg/mL), 0%; in the assay on baboon anti-Aβ antibody (peptide concentration 2 μg/mL), 0%; with baboon anti-Aβ antibody (peptide concentration 8 μg/mL), 6%; in the assay with baboon anti-Aβ antibody (peptide concentration 32 μg/mL) it was 19%.

Take “SEQ ID NO: 18: EFRHD SGYEV (EFRHDSGYEV; PEPTIDE (1)..(10) Abeta 3-12 or APP 770(E674-V683); listed as Homo sapiens) [Aβ3-12]”: the “Percent (%) Inhibition ELISA” value with baboon anti-Aβ antibody (setting [2]) is on record as 1%; in the assay with baboon anti-Aβ antibody (peptide concentration 1 μg/mL) it was 0%; in the assay on baboon anti-Aβ antibody (peptide concentration 2 μg/mL) it was 0%; in the assay with baboon anti-Aβ antibody (peptide concentration 8 μg/mL), 0%; in the assay with baboon anti-Aβ antibody (peptide concentration 32 μg/mL), 3%.
